# Measurements published in patent US20240390335A1, “PHARMACEUTICAL COMPOSITION CONTAINING BETA-LACTAM COMPOUND AND USE THEREOF” (priority 2021, published 2024).
# Like-named read-outs stand apart in the source and are kept apart here. Peptide text beside a SMILES is read from it. * marks the point of attachment. βNA = c1ccc2cc(N*)ccc2c1
# Key:
# Format in all cases: cell-based
# Acinetobacter baumannii [1] = experiment: MIC assay of individual compounds (microdilution, CLSI/NCCLS)
# Procedure: (§1) Mueller-Hinton broth (MH broth) medium, Trypticase Soy Broth (TSB Broth) medium, purchased from BD Difco, Cockeysville, MD, USA; • 96-well plate: Corning Costar, Cambridge, MA, USA; • Test method: the antibacterial activities were tested by the microdilution method according to the CLSI/NCCLS standard.
# (§2) (1) Preparation of the test samples: 4 mg of each sample was taken, and was prepared into a test solution at 1,024 μg/mL with MH broth, and the test solution was diluted two-fold in a 96-well plate to prepare solutions of a series of gradient concentrations, the volume in each well being 90 μL.
# (§3) (2) Preparation of a bacteria solution: The test strains were amplified by Trypticase Soy Broth (TSB Broth) according to the CLSI/NCCLS standard.
# (§4) (3) Addition of the samples: a bacteria solution with a concentration of 6×10^5 cfu/mL was prepared, and 10 μL of the bacteria solution was pipetted into each well of the 96-well plate. Three parallel experiments were set up for each concentration and the results were averaged. To the negative control group, 10 μL of the bacterial solution and 90 μL MH broth were added.
# (§5) (4) Incubation: the 96-well plate was placed in a 37° C. constant-temperature incubator for 18 hours, and the growth of the strains was observed. The drug concentration in the well with no microbial growth was recorded as the MIC.
# Pseudomonas aeruginosa [2] = experiment: as above
# Procedure: as §1, §2, §3, §4, §5
# Acinetobacter baumannii [3] = experiment: Combined in vitro use, checkerboard dilution method
# Procedure: (§6) Mueller-Hinton broth (MH broth) medium, Trypticase Soy Broth (TSB Broth) medium, purchased from BD Difco, Cockeysville, MD, USA; • 96-well plate: Corning Costar, Cambridge, MA, USA; • Test method: the checkerboard dilution method was used for determination.
# (§7) (1) Preparation of the test samples: 4 mg of each sample was taken and was prepared into a test solution at 2,048 μg/mL with MH broth, and the test solution was diluted two-fold in a 96-well plate to prepare solutions of a series of gradient concentrations.
# as §3
# (§8) (3) Addition of the samples: 10 μL of the bacteria solution with a concentration of 6×10^5 CFU/mL was pipetted into each well of the 96-well plate. Each well contained the antibacterial drugs (the compound of formula (I-1) and the compound of formula (I-2)) diluted two-fold with broth and the aforementioned lactamase inhibitor or efflux pump inhibitor. […] The samples were mixed thoroughly. Three parallel experiments were set up for each concentration and the results were averaged. To the negative control group, 10 μL of the bacterial solution and 90 μL MH broth were added.
# (§9) (4) Incubation: the 96-well plate was placed in a 37° C. constant-temperature incubator for 18 hours, and the growth of the strains was observed.
# (§10) (5) Calculation: The in vitro effect of each drug-inhibitor combination was analyzed by calculating the FICI value: FICI=(MIC of drug A in the combination/MIC of drug A alone)+ (MIC of drug B in the combination/MIC of drug B alone).
# (§11) In order to ensure the reliability of the data, three repeated tests were conducted on different dates and the results were averaged.
# Pseudomonas aeruginosa [4] = experiment: as above
# Procedure: as §6, §7, §3, §8, §9, §10, §11
# [5] = tested on: Acinetobacter baumannii or Pseudomonas aeruginosa; experiment: MIC assay of individual compounds, summary over non-fermenter strains; conditions: various Acinetobacter baumannii or Pseudomonas aeruginosa strains
# Procedure: as §1, §2, §3, §4, §5
# Enterobacter cloacae = experiment: MIC assay of individual compounds (microdilution, CLSI/NCCLS)
# Procedure: as §1, §2, §3, §4, §5
# Escherichia coli [6] = experiment: as above
# Procedure: as §1, §2, §3, §4, §5
# Klebsiella pneumoniae [7] = experiment: as above
# Procedure: as §1, §2, §3, §4, §5
# Klebsiella pneumoniae [8] = experiment: Combined in vitro use, checkerboard dilution method
# Procedure: as §6, §7, §3, §8, §9, §10, §11
# [9] = tested on: drug-resistant Enterobacteriaceae strains; experiment: Checkerboard combination, summary over Enterobacteriaceae strains; conditions: combined with avibactam; all of the 4 drug-resistant Enterobacteriaceae strains tested
# Procedure: as §6, §7, §3
# as §8, with “To the negative control group, 10 μL of the bacterial solution and 90 μL MH broth were added.” left out
# (5) Calculation: The in vitro effect of each drug-inhibitor combination was analyzed by calculating the FICI value: FICI=(MIC of drug A in the combination/MIC of drug A alone)+ (MIC of drug B in the combination/MIC of drug B alone). […]
# [10] = tested on: drug-resistant Enterobacteriaceae; experiment: MIC assay of individual compounds, summary over Enterobacteriaceae strains; conditions: against the aforementioned Enterobacteriaceae
# Procedure: as §1, §2, §3, §4, §5
# Escherichia coli [11] = experiment: Combined in vitro use, checkerboard dilution method; conditions: compound of formula (I-1) combined with vaborbactam; Escherichia coli CCPM(A)-P-071301
# Procedure: as §6, §7, §3, §8, §9, §10, §11
# [12] = ATCC17978, individual compound, Acinetobacter baumannii ATCC 17978, read-out: MIC
# [13] = ATCC19606, individual compound, Acinetobacter baumannii ATCC 19606, read-out: MIC
# [14] = ATCC2468, individual compound, Enterobacter cloacae ATCC 2468, read-out: MIC
# [15] = ATCC2469, individual compound, Escherichia coli ATCC 2469, read-out: MIC
# [16] = individual compound, Escherichia coli CCPM(A)-P-071301, read-out: MIC
# [17] = Klebsiella pneumoniae, ATCC2146, individual compound, Klebsiella pneumoniae ATCC 2146, read-out: MIC
# [18] = Klebsiella pneumoniae, ATCC700603, individual compound, Klebsiella pneumoniae ATCC 700603, read-out: MIC
# [19] = Klebsiella pneumoniae, individual compound, Klebsiella pneumoniae CCPM(A)-0814R18, read-out: MIC
# [20] = Klebsiella pneumoniae, individual compound, Klebsiella pneumoniae CCPM(A)-0814R33, read-out: MIC
# [21] = Klebsiella pneumoniae, individual compound, Klebsiella pneumoniae CCPM(A)-081301, read-out: MIC
# [22] = Klebsiella pneumoniae, individual compound, Klebsiella pneumoniae CCPM(A)-081715, read-out: MIC
# [23] = Klebsiella pneumoniae, individual compound, Klebsiella pneumoniae CCPM(A)-081716, read-out: MIC
# [24] = individual compound, Pseudomonas aeruginosa PAO1(CCPM(A)-P-09000032), read-out: MIC
smiles,measurement,setting,value
"N=C(N)NCCC[C@H](NC(=O)[C@@H](N)Cc1ccccc1)C(=O)Nc1ccc2ccccc2c1 [PAβN, PaβN] (H-Phe-Arg-βNA)",MIC,Acinetobacter baumannii [1]; [12],> 256 µg/mL
same,MIC,Acinetobacter baumannii [1]; [13],> 256 µg/mL
same,MIC,Acinetobacter baumannii [1]; Acinetobacter baumannii,> 256 µg/mL
same,MIC,Pseudomonas aeruginosa [2]; Pseudomonas aeruginosa,> 256 µg/mL
same,MIC,"Pseudomonas aeruginosa [2]; Pseudomonas aeruginosa, ATCC27853",> 256 µg/mL
same,MIC,"Pseudomonas aeruginosa [2]; Pseudomonas aeruginosa, PAO1",> 256 µg/mL
same,MIC in combination,"Acinetobacter baumannii [3]; compound of formula (I-1) combined with PAβN, Acinetobacter baumannii CCPM(A)-P-101633(CRAB)",>0.5 µg/mL
same,MIC in combination,"Pseudomonas aeruginosa [4]; compound of formula (I-1) combined with PAβN, Pseudomonas aeruginosa ATCC27853",64 µg/mL
same,MIC in combination,"Pseudomonas aeruginosa [4]; compound of formula (I-1) combined with PAβN, Pseudomonas aeruginosa CCPM(A)-P-091626(CRPA)",128 µg/mL
same,MIC in combination,"Pseudomonas aeruginosa [4]; compound of formula (I-1) combined with PAβN, Pseudomonas aeruginosa PAO1(CCPM(A)-P-09000032)",64 µg/mL
same,activity of the inhibitor itself,[5],relatively weak activities
CC1(C)[C@H](NC(=O)/C(=N\OC2(C(=O)O)CCC2)c2csc(N)n2)C(=O)N1OS(=O)(=O)O [Compound of formula (I-2)],MIC,Enterobacter cloacae; [14],2 µg/mL
same,MIC,Escherichia coli [6]; [15],1 µg/mL
same,MIC,Escherichia coli [6]; [16],1 µg/mL
same,MIC,Klebsiella pneumoniae [7]; [17],2 µg/mL
same,MIC,Klebsiella pneumoniae [7]; [18],2 µg/mL
same,MIC,Klebsiella pneumoniae [7]; [19],2 µg/mL
same,MIC,Klebsiella pneumoniae [7]; [20],2 µg/mL
same,MIC,"Klebsiella pneumoniae [7]; Klebsiella pneumoniae, individual compound, Klebsiella pneumoniae CCPM(A)-0817R61, read-out: MIC",32 µg/mL
same,MIC,Klebsiella pneumoniae [7]; [21],2 µg/mL
same,MIC,"Klebsiella pneumoniae [7]; Klebsiella pneumoniae, individual compound, Klebsiella pneumoniae CCPM(A)-081705, read-out: MIC",2 µg/mL
same,MIC,Klebsiella pneumoniae [7]; [22],1 µg/mL
same,MIC,Klebsiella pneumoniae [7]; [23],32 µg/mL
same,MIC,"Klebsiella pneumoniae [7]; Klebsiella pneumoniae, individual compound, Klebsiella pneumoniae CCPM(A)-081729, read-out: MIC",1 µg/mL
same,MIC in combination,"Klebsiella pneumoniae [8]; compound of formula (I-2) combined with avibactam, Klebsiella pneumoniae ATCC 2146",0.5 µg/mL
same,MIC in combination,"Klebsiella pneumoniae [8]; compound of formula (I-2) combined with avibactam, Klebsiella pneumoniae ATCC 700603",0.5 µg/mL
same,MIC in combination,"Klebsiella pneumoniae [8]; compound of formula (I-2) combined with avibactam, Klebsiella pneumoniae CCPM(A)-081715",0.5 µg/mL
same,MIC in combination,"Klebsiella pneumoniae [8]; compound of formula (I-2) combined with avibactam, Klebsiella pneumoniae CCPM(A)-081729",0.5 µg/mL
same,change of MIC values on combination,[9],significantly reduced
"O=C(NC1CCNCC1)[C@@H]1CC[C@@H]2CN1C(=O)N2OS(=O)(=O)O [Relebactam, relebactam]",MIC,Enterobacter cloacae; [14],128 µg/mL
same,MIC,"Enterobacter cloacae; individual compound, Enterobacter cloacae CCPM(A)-P-111719, read-out: MIC",128 µg/mL
same,MIC,Escherichia coli [6]; [15],64 µg/mL
same,MIC,Escherichia coli [6]; [16],64 µg/mL
same,MIC,Klebsiella pneumoniae [7]; [17],64 µg/mL
same,MIC,Klebsiella pneumoniae [7]; [18],64 µg/mL
same,MIC,Klebsiella pneumoniae [7]; [19],64 µg/mL
same,MIC,Klebsiella pneumoniae [7]; [20],64 µg/mL
same,MIC,Klebsiella pneumoniae [7]; [21],> 128 µg/mL
same,MIC,Klebsiella pneumoniae [7]; [22],64 µg/mL
same,MIC,Klebsiella pneumoniae [7]; [23],128 µg/mL
same,MIC in combination,"Klebsiella pneumoniae [8]; compound of formula (I-1) combined with relebactam, Klebsiella pneumoniae ATCC 2146",0.5 µg/mL
same,MIC in combination,"Klebsiella pneumoniae [8]; compound of formula (I-1) combined with relebactam, Klebsiella pneumoniae ATCC 700603",8 µg/mL
same,activity of the inhibitor itself,[10],relatively weak activities
"COc1ccc2cc3[n+](cc2c1OC)CCc1cc2c(cc1-3)OCO2 [Berberine, berberine]",MIC,Acinetobacter baumannii [1]; [12],> 1020 µg/mL
same,MIC,Acinetobacter baumannii [1]; [13],> 1020 µg/mL
same,MIC,"Acinetobacter baumannii [1]; individual compound, Acinetobacter baumannii CCPM(A)-P-101633(CRAB), read-out: MIC",> 1020 µg/mL
same,MIC,"Pseudomonas aeruginosa [2]; individual compound, Pseudomonas aeruginosa ATCC27853, read-out: MIC",> 1020 µg/mL
same,MIC,"Pseudomonas aeruginosa [2]; individual compound, Pseudomonas aeruginosa CCPM(A)-P-091626(CRPA), read-out: MIC",> 1020 µg/mL
same,MIC,Pseudomonas aeruginosa [2]; [24],> 1020 µg/mL
same,MIC in combination,"Acinetobacter baumannii [3]; compound of formula (I-1) combined with berberine, Acinetobacter baumannii ATCC 19606",32 µg/mL
same,MIC in combination,"Acinetobacter baumannii [3]; compound of formula (I-1) combined with berberine, Acinetobacter baumannii CCPM(A)-P-101633(CRAB)",>0.5 µg/mL
same,activity of the inhibitor itself,[5],relatively weak activities
"C[C@H]1[C@H]2CC[C@H]3[C@@H]4CC=C5C[C@@H](N(C)C)CC[C@]5(C)[C@H]4CC[C@]23CN1C [Conessine, conessine]",MIC,Acinetobacter baumannii [1]; [13],> 256 µg/mL
same,MIC,Pseudomonas aeruginosa [2]; [24],> 256 µg/mL
same,MIC in combination,"Acinetobacter baumannii [3]; compound of formula (I-1) combined with conessine, Acinetobacter baumannii ATCC 19606",4 µg/mL
same,MIC in combination,"Pseudomonas aeruginosa [4]; compound of formula (I-1) combined with conessine, Pseudomonas aeruginosa PAO1(CCPM(A)-P-09000032)",>256 µg/mL
same,activity of the inhibitor itself,[5],relatively weak activities
"O=C(O)C[C@@H]1CC[C@H](NC(=O)Cc2cccs2)B(O)O1 [Vaborbactam, vaborbactam]",MIC,Enterobacter cloacae; Enterobacter cloacae,> 128 µg/mL
same,MIC,"Enterobacter cloacae; Enterobacter cloacae, ATCC2468",> 128 µg/mL
same,MIC,Escherichia coli [6]; Escherichia coli,> 128 µg/mL
same,MIC,"Escherichia coli [6]; Escherichia coli, ATCC2469",> 128 µg/mL
same,MIC,Klebsiella pneumoniae [7]; Klebsiella pneumoniae,> 128 µg/mL
same,MIC,"Klebsiella pneumoniae [7]; Klebsiella pneumoniae, ATCC2146",> 128 µg/mL
same,MIC,"Klebsiella pneumoniae [7]; Klebsiella pneumoniae, ATCC700603",> 128 µg/mL
same,MIC,"Klebsiella pneumoniae [7]; individual compound, Klebsiella pneumoniae CCPM(A)-0814R33",>128 µg/mL
same,MIC,"Klebsiella pneumoniae [7]; individual compound, Klebsiella pneumoniae CCPM(A)-081301",>128 µg/mL
same,MIC,"Klebsiella pneumoniae [7]; individual compound, Klebsiella pneumoniae CCPM(A)-081715",>128 µg/mL
same,MIC,"Klebsiella pneumoniae [7]; individual compound, Klebsiella pneumoniae CCPM(A)-081716",>128 µg/mL
same,MIC in combination,Escherichia coli [11],0.5 µg/mL
same,MIC in combination,"Klebsiella pneumoniae [8]; compound of formula (I-1) combined with vaborbactam, Klebsiella pneumoniae ATCC 700603",8 µg/mL
same,MIC in combination,"Klebsiella pneumoniae [8]; compound of formula (I-1) combined with vaborbactam, Klebsiella pneumoniae CCPM(A)-0814R33",2 µg/mL
same,activity of the inhibitor itself,[10],relatively weak activities
